# Results: paper PMC8863579, “Effects of pharmacological inhibition of the sodium‐dependent phosphate cotransporter 2b (NPT2b) on intestinal phosphate absorption in mouse and rat models” (Pharmacology Research & Perspectives, 2022)
# Several values for one entry are separate records, joined by “and”; a condition that tells them apart may be missing. Identical values can stand only once.
# Legend:
# [1] = system: intestinal phosphate absorption; assay: Recovery of radiolabeled phosphate in gastrointestinal tract of rats at 4 h; format: in vivo, rat; settings: LY3358966 10 mg/kg
# Description: (§1) Male Sprague Dawley rats, 260–287 g for the first study and 274–362 g for the second study, were fasted for 4 h (the first 4 h of the light cycle) then dosed with placebo, a 50 or 150 mg/kg sevelamer HCl water dispersion, LY3358966 SDD (10 mg/kg API) dissolved in water, or a combination of LY3358966 SDD and sevelamer HCl. Fifteen minutes later, the animals were dosed with radiolabeled phosphate as described above. In the first study, the animals were given free access to food, then feces were collected at 6, 24, and 48 h post radiolabeled phosphate dose. In the second study, the animals were fasted an additional 4 h, then feces, stomach, small intestine, and large intestine were individually collected. The gastrointestinal tract tissues and feces were digested overnight at 37°C in 1 N NaOH, and the recovered radioactivity was determined.
# [2] = system: intestinal phosphate absorption; assay: Recovery of radiolabeled phosphate in feces of rats; format: in vivo, rat; settings: LY3358966 10 mg/kg
# Description: as §1
# Human NPT2a = target: T1, Human NPT2a (Homo sapiens, UniProt Q06495); assay: 33P-phosphate uptake in CHO cells expressing human NPT2a; format: cell-based
# T1 construct: Full Length cDNA Cloning and Generation of Cell Lines Over-Expressing Human NPT2a, NPT2c, Pit1, and Pit2; host or cells: CHO-K1 / T-REx CHO, pJTI R4 CMV-TO, tetracycline-induced
# T1 sequence (Q06495 1-639): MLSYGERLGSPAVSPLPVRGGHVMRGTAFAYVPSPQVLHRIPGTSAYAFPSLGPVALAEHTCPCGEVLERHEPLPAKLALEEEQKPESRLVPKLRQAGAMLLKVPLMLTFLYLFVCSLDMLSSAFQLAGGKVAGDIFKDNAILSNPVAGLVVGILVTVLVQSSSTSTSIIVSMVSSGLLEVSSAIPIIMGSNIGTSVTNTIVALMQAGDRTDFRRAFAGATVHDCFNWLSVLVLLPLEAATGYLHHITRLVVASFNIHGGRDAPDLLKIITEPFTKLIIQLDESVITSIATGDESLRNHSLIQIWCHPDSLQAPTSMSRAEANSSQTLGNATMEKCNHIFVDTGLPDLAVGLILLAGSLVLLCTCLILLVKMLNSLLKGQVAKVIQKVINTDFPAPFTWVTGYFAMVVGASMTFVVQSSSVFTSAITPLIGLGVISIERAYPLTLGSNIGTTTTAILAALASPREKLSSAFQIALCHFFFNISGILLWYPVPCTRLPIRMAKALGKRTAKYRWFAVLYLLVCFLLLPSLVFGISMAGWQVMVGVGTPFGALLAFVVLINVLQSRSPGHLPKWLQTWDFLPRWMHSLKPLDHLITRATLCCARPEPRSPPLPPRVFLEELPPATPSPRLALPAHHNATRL
# Description: T‐Rex™ Chinese Hamster Ovary cells (CHO; Thermo Fisher Scientific) stably expressing human, mouse, or rat NPT2b under a tetracycline‐inducible promoter were generated using standard cDNA transfection and clone selection procedures (see Supporting Information). Cells were plated in 96‐well CytoStar‐T® scintillating microplates and were incubated overnight in growth media plus 100 ng/ml of tetracycline to induce expression of NPT2b. The next day, cells were washed 3 times with 200 µl assay buffer (137 mM NaCl, 5.4 mM KCl, 2.8 mM CaCl2, 1.2 mM MgSO4, and 14 mM Tris‐HCl buffer, pH 7.5). LY3358966 serially diluted 1‐to‐3 in DMSO was added to cells with assay buffer. An equal volume of H3 ^33PO4 (PerkinElmer) in assay buffer supplemented with 5 µM potassium phosphate was then added to initiate radiolabeled phosphate (^33P‐phosphate) uptake. […] The plate was immediately read on a Wallac MicroBeta Trilux liquid scintillation counter. Percent inhibition at all concentrations tested was calculated, and IC50 values were then determined using a 4‐parameter logistic curve fitting equation.
# Similar methods were used to measure the effects of LY3358966 on other transporters of interest, except that constitutive promoters were used to generate CHO cells over‐expressing human PiT1 and PiT2. The ^33P‐phosphate uptake was measured after 45 min at 20°C for the NPT2a, NPT2c, PiT1, and PiT2 assays. […]
smiles,measurement,setting,value
"CC1(C)CN(C(=O)NCCCCO)CCN1Cc1cccc(C(=O)Nc2sc3c(c2C(=O)Nc2cc(F)c(CCc4ccc(C(=O)O)cc4)c(F)c2)CCCC3)c1 [LY3358966, 4‐[2‐[2,6‐difluoro‐4‐[[2‐[[3‐[[4‐(4‐hydroxybutylcarbamoyl)‐2,2‐dimethyl‐piperazin‐1‐yl]methyl]benzoyl]amino]‐4,5,6,7‐tetrahydrobenzothiophene‐3‐carbonyl]amino]phenyl]ethyl]benzoic acid]",increase of 33P-phosphate recovery in the gastrointestinal tract over vehicle,[1]; 4 h,6.34%
same,"33P Recovered in G.I. Tract, Large Intestine (means ± SEM)",[1]; 4 hours,13.75 ± 2.83%
same,"33P Recovered in G.I. Tract, Small Intestine (means ± SEM)",[1]; 4 hours,15.51 ± 2.37%
same,"33P Recovered in G.I. Tract, Stomach (means ± SEM)",[1]; 4 hours,1.83 ± 0.41%
same,33P Recovered in Total G.I. Tract (means ± SEM),"[1]; 4 hours, 10 mg/kg",31.09% and 31.09 ± 1.38%
same,NPT2b inhibitor mediated recovery in feces (difference between placebo and LY3358966-treated groups),"[2]; 48 h, 10 mg/kg",5.3% and 5.34%
same,"33P Recovered in Feces (0-6 hrs), Mean ± SEM",[2],0.23 ± 0.19%
same,"33P Recovered in Feces (6-24 hrs), Mean ± SEM",[2],16.62 ± 1.04%
same,"33P Recovered in Feces (24-48 hrs), Mean ± SEM",[2],1.44 ± 0.14%
same,"33P Recovered in Feces Total (0-48 hrs), Mean ± SEM",[2]; 10 mg/kg,18.29 ± 1.04%
same,IC50,"Human NPT2a; geometric mean, 45 min at 20°C",11 nM
same,Selectivity,Human NPT2a; ratio of IC50 of human NPT2a assay to that of human NPT2b assay,0.3
